Activity calls are given as the source filed them. The calls are words filed in the database; no cut-off is given here.
Tests used:
[1] = test system: HCT-116; test: Cytotoxicity against human HCT116 cells by MTT assay; assay type: functional, cell-based
[2] = test system: A549; test: Cytotoxicity against human A549 cells by MTT assay; assay type: functional, cell-based
[3] = test system: KB; test: Cytotoxicity against human KB cells by MTT assay; assay type: functional, cell-based
[4] = test system: Bel-7402; test: Cytotoxicity against human Bel7402 cells by MTT assay; assay type: functional, cell-based
[5] = molecular target: T1, DNA topoisomerase 1 (Homo sapiens) (UniProt P11387); test: Inhibition of human topoisomerase 1-mediated relaxation of supercoiled plasmid DNA assessed as formation of linear DNA at 100 uM by agarose gel electrophoresis
T1 sequence (whole entry): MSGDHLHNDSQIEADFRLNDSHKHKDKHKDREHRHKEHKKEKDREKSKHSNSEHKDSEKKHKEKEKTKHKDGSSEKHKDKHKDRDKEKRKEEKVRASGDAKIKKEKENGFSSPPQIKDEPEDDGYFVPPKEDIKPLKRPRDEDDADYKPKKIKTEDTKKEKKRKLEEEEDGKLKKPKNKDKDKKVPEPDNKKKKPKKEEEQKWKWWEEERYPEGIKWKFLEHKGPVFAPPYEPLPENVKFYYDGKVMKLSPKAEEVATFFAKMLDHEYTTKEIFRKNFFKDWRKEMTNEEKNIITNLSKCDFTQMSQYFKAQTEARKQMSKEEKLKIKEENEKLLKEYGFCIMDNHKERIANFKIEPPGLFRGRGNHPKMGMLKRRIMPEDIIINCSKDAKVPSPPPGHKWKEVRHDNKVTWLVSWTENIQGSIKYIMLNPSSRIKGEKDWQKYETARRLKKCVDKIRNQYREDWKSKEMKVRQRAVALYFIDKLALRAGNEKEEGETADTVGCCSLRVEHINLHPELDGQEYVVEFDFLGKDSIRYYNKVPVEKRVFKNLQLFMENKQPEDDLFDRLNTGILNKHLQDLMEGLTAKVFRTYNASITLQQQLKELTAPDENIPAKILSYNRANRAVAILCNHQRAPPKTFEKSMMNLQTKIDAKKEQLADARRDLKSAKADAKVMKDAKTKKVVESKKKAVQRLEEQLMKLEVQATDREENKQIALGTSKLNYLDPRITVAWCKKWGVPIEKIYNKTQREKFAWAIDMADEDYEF

[6] = test system: MDA-MB-231; test: Cytotoxicity against human MDA-MB-231 cells by MTT assay; assay type: functional, cell-based
[7] = molecular target: DNA topoisomerase 2-alpha (Homo sapiens) (UniProt P11388); test: Inhibition of human topoisomerase 2-mediated relaxation of supercoiled plasmid DNA assessed as formation of linear DNA at 100 uM by agarose gel electrophoresis
Sequence of DNA topoisomerase 2-alpha (Homo sapiens) (P11388 whole entry): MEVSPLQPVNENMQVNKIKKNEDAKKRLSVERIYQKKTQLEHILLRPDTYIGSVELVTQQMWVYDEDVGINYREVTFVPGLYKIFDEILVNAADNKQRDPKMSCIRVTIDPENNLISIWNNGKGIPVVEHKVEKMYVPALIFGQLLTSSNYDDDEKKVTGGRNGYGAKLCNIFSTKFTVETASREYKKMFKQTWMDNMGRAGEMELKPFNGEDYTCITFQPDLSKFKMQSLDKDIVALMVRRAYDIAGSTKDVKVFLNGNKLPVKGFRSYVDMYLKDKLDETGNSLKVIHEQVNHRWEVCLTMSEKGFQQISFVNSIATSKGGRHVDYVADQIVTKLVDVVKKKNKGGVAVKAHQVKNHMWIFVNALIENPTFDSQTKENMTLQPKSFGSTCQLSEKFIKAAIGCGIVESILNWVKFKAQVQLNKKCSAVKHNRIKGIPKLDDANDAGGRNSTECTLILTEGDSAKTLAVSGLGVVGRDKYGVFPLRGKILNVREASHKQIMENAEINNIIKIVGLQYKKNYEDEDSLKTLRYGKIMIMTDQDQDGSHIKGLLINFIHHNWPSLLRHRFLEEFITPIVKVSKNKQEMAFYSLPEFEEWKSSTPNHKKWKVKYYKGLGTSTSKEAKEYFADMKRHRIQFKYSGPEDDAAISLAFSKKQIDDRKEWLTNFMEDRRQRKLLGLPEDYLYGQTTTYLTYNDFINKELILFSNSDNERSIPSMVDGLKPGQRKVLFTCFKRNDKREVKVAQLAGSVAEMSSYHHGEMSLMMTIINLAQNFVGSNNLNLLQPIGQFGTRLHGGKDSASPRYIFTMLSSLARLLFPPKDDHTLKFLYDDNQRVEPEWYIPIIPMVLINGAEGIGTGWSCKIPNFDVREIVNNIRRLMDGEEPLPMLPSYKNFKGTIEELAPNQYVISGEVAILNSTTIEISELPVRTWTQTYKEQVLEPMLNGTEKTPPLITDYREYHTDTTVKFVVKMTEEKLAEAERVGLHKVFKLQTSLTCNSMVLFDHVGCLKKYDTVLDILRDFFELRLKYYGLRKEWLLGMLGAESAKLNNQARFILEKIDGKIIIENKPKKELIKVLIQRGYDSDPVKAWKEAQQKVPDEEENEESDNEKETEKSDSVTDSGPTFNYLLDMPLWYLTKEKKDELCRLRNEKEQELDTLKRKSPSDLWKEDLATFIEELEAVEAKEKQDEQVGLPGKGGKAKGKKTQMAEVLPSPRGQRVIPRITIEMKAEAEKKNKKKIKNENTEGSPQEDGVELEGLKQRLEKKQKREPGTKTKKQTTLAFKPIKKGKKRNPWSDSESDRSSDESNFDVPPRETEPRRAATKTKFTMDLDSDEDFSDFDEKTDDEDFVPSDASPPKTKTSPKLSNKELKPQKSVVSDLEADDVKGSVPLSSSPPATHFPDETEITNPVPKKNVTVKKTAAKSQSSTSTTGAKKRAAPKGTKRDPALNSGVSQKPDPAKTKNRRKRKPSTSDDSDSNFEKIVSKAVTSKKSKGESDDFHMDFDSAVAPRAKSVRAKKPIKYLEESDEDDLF

| SMILES | IC50 [1] | IC50 [2] | IC50 [3] | IC50 [4] | inhibition [5] | IC50 [6] | inhibition [7] |
| --- | --- | --- | --- | --- | --- | --- | --- |
| CCn1cc(C(=O)Nc2ccccc2)c(=O)c2cc(F)c(N3CCNC(C)C3)c(F)c21 (stereo not drawn) | 12.7 µM | 39.3 µM | 4.4 µM | 6 µM | inactive | 7.4 µM |  |
| CCn1cc(C(=O)Nc2ccc(OC)cc2)c(=O)c2cc(F)c(N3CCNC(C)C3)c(F)c21 (stereo not drawn) | 3.8 µM | 9.7 µM | 2.6 µM | 5.4 µM | inactive | 7.3 µM |  |
| CCn1cc(C(=O)Nc2ccccc2N)c(=O)c2cc(F)c(N3CCNC(C)C3)c(F)c21 (stereo not drawn) | 2.7 µM | 5.9 µM | 2.8 µM | 4.8 µM | inactive | 9.5 µM |  |
| CC[C@@]1(O)C(=O)OCc2c1cc1n(c2=O)Cc2cc3cc(O)ccc3nc2-1 [HYDROXYCAMPTOTHECIN] | 0.3 µM | 0.07 µM |  |  |  | 0.06 µM |  |
| CCn1cc(C(=O)Nc2ccc(C(C)=O)cc2)c(=O)c2cc(F)c(N3CCNC(C)C3)c(F)c21 (stereo not drawn) | 4.6 µM | 4 µM | 42.6 µM | > 50 µM | inactive | 5.6 µM | Active |
| CCn1cc(C(=O)Nc2cc([N+](=O)[O-])ccc2F)c(=O)c2cc(F)c(N3CCNC(C)C3)c(F)c21 (stereo not drawn) | 2.6 µM | 1.7 µM | 3.2 µM | 2.9 µM | inactive | 6.9 µM | Active |
| CCn1cc(C(=O)Nc2ccc(C)c([N+](=O)[O-])c2)c(=O)c2cc(F)c(N3CCNC(C)C3)c(F)c21 (stereo not drawn) | 11.8 µM | 3.7 µM | 3.9 µM | 29.1 µM | inactive | 4.2 µM | Active |
| CCn1cc(C(=O)Nc2ccc(Cl)cn2)c(=O)c2cc(F)c(N3CCNC(C)C3)c(F)c21 (stereo not drawn) | 3.3 µM | 3.3 µM | 1.6 µM | 4.9 µM | inactive | 4.8 µM | Active |
| CCn1cc(C(=O)Nc2ccc(OC(F)(F)F)cc2)c(=O)c2cc(F)c(N3CCNC(C)C3)c(F)c21 (stereo not drawn) | 2.35 µM | 1.32 µM | 1.4 µM | 2 µM | inactive | 0.98 µM | Active |
| CCn1cc(C(=O)Nc2nccs2)c(=O)c2cc(F)c(N3CCNC(C)C3)c(F)c21 (stereo not drawn) | 8.66 µM | 20.2 µM | 43.5 µM | > 50 µM | inactive | > 50 µM |  |
| CCn1cc(C(=O)Nc2ccccc2O)c(=O)c2cc(F)c(N3CCNC(C)C3)c(F)c21 (stereo not drawn) | 5.37 µM | 24.8 µM | 5.05 µM | > 50 µM | inactive | 7.43 µM |  |
| COc1cc([C@@H]2c3cc4c(cc3[C@@H](O[C@@H]3O[C@@H]5CO[C@@H](C)O[C@H]5[C@H](O)[C@H]3O)[C@H]3COC(=O)[C@H]23)OCO4)cc(OC)c1O |  |  |  |  |  |  | Active |
| CCn1cc(C(=O)Nc2cccc([N+](=O)[O-])c2)c(=O)c2cc(F)c(N3CCNC(C)C3)c(F)c21 (stereo not drawn) | 2.71 µM | 3.24 µM | 1.7 µM | 1 µM | inactive | 3.25 µM | Active |
| CCn1cc(-c2nc3ccc([N+](=O)[O-])cc3o2)c(=O)c2cc(F)c(N3CCNC(C)C3)c(F)c21 (stereo not drawn) | 1.1 µM | 0.9 µM | 0.9 µM | 1.6 µM | inactive | 2 µM |  |
| CCn1cc(C(=O)NCc2ccc(OC)cc2)c(=O)c2cc(F)c(N3CCNC(C)C3)c(F)c21 (stereo not drawn) | 1.4 µM | 7 µM | 1.63 µM | 10.3 µM | inactive | 25.3 µM |  |
